In one series the test system is rabbit skeletal myosin. The series is described as follows: Myosin inhibition assay (rbskMF pCa 6 IC50). Particulars: cardiac vs rabbit skeletal myofibrils. In kind it is biochemical. The source says:
Myosin inhibition assay (rbskMF pCa 6 IC50 (μM))
Inhibition of the enzymatic activity of rabbit skeletal myosin associated with the release of ADP (adenosine diphosphate) at the calcium concentrate that achieves a 50% activation of the rabbit skeletal myofibril system. The procedure was the same as that of bovin cardiac myosin inhibition assay (bcMF pCa 6 IC50 (μM)) by replacing bovine cardiac myofibril with rabbit skeletal myofibril.

Series [1] addresses T1, bovine cardiac myosin (Bos taurus (Bovine), UniProt Q9BE39). The series can be described thus: Myosin inhibition assay (bcMF serum pCa 6 IC50), 10% human serum. In kind it is biochemical. As to conditions: in the presence of 10% human serum. The source says:
Myosin Inhibition Assay (bcMF Serum pCa 6 IC50 (μM))
Inhibition of the enzymatic activity of bovine cardiac myosin associated with the release of ADP (adenosine diphosphate) at the calcium concentrate that achieves a 50% activation of the bovine cardiac myofibril system in the presence of 10% human serum. The procedure was the same as that bovin cardiac myosin inhibition assay (bcMF pCa 6 IC50 (μM)) but with the addition of 10% human serum.

The target in series [2] is T1, bovine cardiac myosin. The series can be described thus: Myosin inhibition assay (bcMF pCa 6 IC50). In kind it is biochemical. Particulars: bovine cardiac myofibrils, calcium giving 50% activation. How it is done:
Myosin inhibition assay (bcMF pCa 6IC50 (μM))
Small molecule agents were assessed for their ability to inhibit the enzymatic activity of bovine cardiac myosin using a biochemical assay that couples the release of ADP (adenosine diphosphate) from cardiac myosin to an enzymatic coupling system consisting of pyruvate kinase and lactate dehydrogenase (PK/LDH) and monitoring the absorbance decrease of NADH (at 340 nm) as a function of time. PK converts ADP to ATP (adenosine triphosphate) by converting PEP (phosphoenolpyruvate) to pyruvate. Pyruvate is then converted to lactate by LDH by converting NADH (nicotinamide adenine dinucleotide) to NAD (oxidized nicotinamide adenine dinucleotide). The source of cardiac myosin was from bovine heart in the form of skinned myofibrils. Prior to testing small molecule agents, the bovine myofibrils were assessed for their calcium responsiveness and the calcium concentration that achieves a 50% activation of the myofibril system was chosen as the final condition for assessing the inhibitory activity of the small molecule agents. All enzymatic activity was measured in a buffered solution containing 12 mM PIPES (piperazine-N,N′-bis(2-ethanesulfonic acid), 2 mM magnesium chloride at pH 6.8 (PM12 buffer). Final assay conditions were 1 mg/mL of bovine cardiac myofibrils, 0.4 mM PK/LDH, 50 uM ATP, 0.1 mg/mL BSA (bovine serum albumin), 10 ppm antifoam, 2 mM BME, 0.5 mM NADH, and 1.5 mM PEP at the desired free calcium concentration required to achieve 50% activation of the myofibrils.
A dilution series of compound was created in DMSO such that the final desired concentration of compound would be achieved in a volume of 30 μL with a fixed DMSO concentration of 3.3% (v/v). Typically 1 μL of the dilution series were added to 384 well plate to achieve a 10 point dose response. Following the addition of 14 μL of a solution containing bovine cardiac myofibrils, PK/LDH and a solution of calcium (that achieved 50% activation), the enzymatic reaction was started with the addition of 15 μL of a solution containing ATP, PEP and NADH. The reaction progress was followed in a PerkinElmer Envision plate reader at ambient temperature using clear bottom plates. The plate reader was configured to read absorbance at 340 nm in kinetics mode for 15 minutes. Data were recorded as the slope of the absorbance response to time. The slopes of the absorbance response as a function of time were normalized to slopes on the plate containing DMSO. This normalized rate was then plotted as a function of small molecule concentration and the data was fitted to a four-parameter fit using EXCEL XLfit. The IC50 is the concentration at which fifty percent of the total response is inhibited.

Series [3] deals with adult rat ventricular myocytes. The series is described as follows: Cardiomyocyte contractility assay. In kind it is cell-based. Particulars: 0.3 μM compound; for inhibition at 0.3 µM: Rattus norvegicus, Ventricular myocyte, fractional shortening, myocytes paced at 1 Hz, read-out: % inhibition of FS at 0.3 μM. How it is done:
Cardiomyocyte Contractility Assay
Contractility of adult rat ventricular myocytes is determined by edge detection with an IonOptix contractility system. Aliquots of myocytes in Tyrode buffer (137 mM NaCl, 3.7 mM KCL, 0.5 mM MgCl2, 1.5 mM CaCl2, 4 mM HEPES, 11 mM glucose) are placed in a perfusion chamber (Series 20 RC-27NE; Warner Instruments), allowed to adhere to the coverslip, and then perfused with 37° C. Tyrode buffer. Myocytes are filed stimulated at 1 Hz and 10V. Only myocytes with clear striations, quiescent prior to pacing, with a cell length of 120-180 microns, a basal fractional shortening equal to 3-8% of the cell length, and a contraction velocity greater than 100 microns per second are used for contractility experiments. To determine the response to compounds (at 0.3 μM concentration), myocytes are first perfused for 60 seconds with Tyrodes buffer followed by 5 min of compound and a 140 second washout with Tyrodes buffer. Data is continuously recorded using IonOptix software. Contractility data is analyzed using Ionwizard software (IonOptix). For each cell, 10-20 contractility transients were averaged and compared under basal (no compound) and compound-treated conditions. Compound activity is measured by effects on fractional shortening (FS), where fractional shortening is the ratio of the peak length of the cell at contraction divided by the basal cell length normalized to 100% for an untreated cell. The % inhibition measurement is calculated by subtracting the FS value from 100%.

Usually IC50 stands for the concentration that inhibits the measured activity by half. For orientation: inhibition means the percentage by which the read-out fell short of the control.

T1 sequence (Q9BE39 whole entry): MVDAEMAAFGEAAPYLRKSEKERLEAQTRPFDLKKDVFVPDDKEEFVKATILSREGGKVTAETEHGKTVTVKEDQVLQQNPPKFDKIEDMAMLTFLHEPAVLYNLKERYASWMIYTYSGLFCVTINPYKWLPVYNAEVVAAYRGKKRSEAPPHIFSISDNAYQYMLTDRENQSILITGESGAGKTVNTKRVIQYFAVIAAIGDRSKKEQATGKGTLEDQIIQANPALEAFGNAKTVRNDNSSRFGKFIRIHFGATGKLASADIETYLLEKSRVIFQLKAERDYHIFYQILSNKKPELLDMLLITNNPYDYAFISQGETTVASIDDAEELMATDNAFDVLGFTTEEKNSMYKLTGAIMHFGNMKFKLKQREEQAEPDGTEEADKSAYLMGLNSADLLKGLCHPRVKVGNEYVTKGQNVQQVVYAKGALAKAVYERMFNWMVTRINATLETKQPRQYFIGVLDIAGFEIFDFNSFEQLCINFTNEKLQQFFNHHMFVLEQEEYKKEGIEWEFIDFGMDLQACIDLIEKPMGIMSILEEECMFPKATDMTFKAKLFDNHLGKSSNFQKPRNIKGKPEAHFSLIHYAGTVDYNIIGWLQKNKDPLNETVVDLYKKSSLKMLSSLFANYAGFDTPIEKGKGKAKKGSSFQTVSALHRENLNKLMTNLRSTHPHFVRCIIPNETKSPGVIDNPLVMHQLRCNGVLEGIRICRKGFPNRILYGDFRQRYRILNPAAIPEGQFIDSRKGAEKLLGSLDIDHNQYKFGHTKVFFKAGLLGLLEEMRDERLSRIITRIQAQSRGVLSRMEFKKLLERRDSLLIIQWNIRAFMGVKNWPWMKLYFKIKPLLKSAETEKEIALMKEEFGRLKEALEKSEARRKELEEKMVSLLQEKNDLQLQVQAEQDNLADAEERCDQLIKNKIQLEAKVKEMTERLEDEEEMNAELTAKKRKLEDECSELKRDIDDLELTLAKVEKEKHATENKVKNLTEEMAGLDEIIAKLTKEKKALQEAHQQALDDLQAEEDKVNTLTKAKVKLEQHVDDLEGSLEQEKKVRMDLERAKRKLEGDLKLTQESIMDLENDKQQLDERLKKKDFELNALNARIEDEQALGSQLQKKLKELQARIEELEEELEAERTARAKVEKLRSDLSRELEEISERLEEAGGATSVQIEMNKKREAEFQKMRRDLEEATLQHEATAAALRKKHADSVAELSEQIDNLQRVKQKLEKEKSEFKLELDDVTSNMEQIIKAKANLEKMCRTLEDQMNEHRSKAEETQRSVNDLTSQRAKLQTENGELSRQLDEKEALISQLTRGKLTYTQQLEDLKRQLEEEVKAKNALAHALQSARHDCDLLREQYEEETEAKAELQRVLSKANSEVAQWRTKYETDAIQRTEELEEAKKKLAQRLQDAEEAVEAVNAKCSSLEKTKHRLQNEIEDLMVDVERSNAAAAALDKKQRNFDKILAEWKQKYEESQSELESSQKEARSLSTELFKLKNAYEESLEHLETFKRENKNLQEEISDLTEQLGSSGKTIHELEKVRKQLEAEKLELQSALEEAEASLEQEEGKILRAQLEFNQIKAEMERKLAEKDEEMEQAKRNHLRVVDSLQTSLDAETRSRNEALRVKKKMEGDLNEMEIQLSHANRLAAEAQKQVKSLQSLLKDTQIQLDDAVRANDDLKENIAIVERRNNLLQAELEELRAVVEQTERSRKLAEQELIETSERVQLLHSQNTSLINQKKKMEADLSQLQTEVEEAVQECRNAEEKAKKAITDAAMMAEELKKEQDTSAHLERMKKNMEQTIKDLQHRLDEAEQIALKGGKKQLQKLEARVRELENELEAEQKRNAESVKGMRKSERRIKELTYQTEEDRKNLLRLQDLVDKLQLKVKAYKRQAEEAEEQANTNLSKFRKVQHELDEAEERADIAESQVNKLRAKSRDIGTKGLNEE
T1 sequence (P85100 whole entry partner): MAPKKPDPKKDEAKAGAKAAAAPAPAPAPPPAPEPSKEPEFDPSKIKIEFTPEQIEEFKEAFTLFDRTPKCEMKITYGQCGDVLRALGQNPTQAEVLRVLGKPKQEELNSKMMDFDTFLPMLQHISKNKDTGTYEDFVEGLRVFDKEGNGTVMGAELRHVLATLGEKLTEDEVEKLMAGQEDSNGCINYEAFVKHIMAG
T1 sequence (Q3SZE5 whole entry partner): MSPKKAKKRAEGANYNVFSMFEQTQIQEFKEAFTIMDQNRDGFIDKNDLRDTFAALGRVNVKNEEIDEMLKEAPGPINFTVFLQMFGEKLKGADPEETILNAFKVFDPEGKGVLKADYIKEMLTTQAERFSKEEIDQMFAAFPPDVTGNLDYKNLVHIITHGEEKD

On to `O=c1[nH]c2c(c(=O)n1C1CCOCC1)CC(F)(F)[C@H](c1cccc(F)c1)N2` [Compound C-1, (S)-6,6-difluoro-7-(3-fluorophenyl)-3-(tetrahydro-2H-pyran-4-yl)-5,6,7,8-tetrahydropyrido[2,3-d]pyrimidine-2,4(1H,3H)-dione, reference compound], for which, in the series on rabbit skeletal myosin, the “Cardiac selectivity ratio vs rbskMF pCa 6 IC50” value was determined as 5.48. Also, the IC50 at bovine cardiac myosin [1] came to 3490 nM; on bovine cardiac myosin [2] (read-out: bcMF pCa 6 IC50), 1570 nM. In series [3], the “observation in cardiomyocyte contractility assay” value is “Early after depolarization or EAD”. Moreover, the inhibition at 0.3 µM in series [3] is 33 to 66%.
As to `Cc1ccc(F)c([C@@H]2Nc3[nH]c(=O)n(C4CCOCC4)c(=O)c3C[C@@H]2F)c1` [Compound 3, (6S,7S)-6-fluoro-7-(2-fluoro-5-methylphenyl)-3-(tetrahydro-2H-pyran-4-yl)-5,6,7,8-tetrahydropyrido[2,3-d]pyrimidine-2, 4 (1H, 3H)-dione], the “Cardiac selectivity ratio vs rbskMF pCa 6 IC50” value in the series with rabbit skeletal myosin is recorded as 4.51. For the same molecule, the results for the IC50 at bovine cardiac myosin [1], at bovine cardiac myosin [2] (read-out: bcMF pCa 6 IC50) and at bovine cardiac myosin [2] (read-out: bcMF pCa_6 IC50 MEAN) were 1560 nM, 1110 nM and 1110 nM, respectively. Moreover, in series [3], the inhibition at 0.3 µM is more than 66%.
